Laboratory results reported in patent US20230181536A1, “ANTICANCER COMBINATION THERAPY WITH N-(1-ACRYLOYL-AZETIDIN-3-YL)-2-((1H-INDAZOL-3-YL)AMINO)METHYL)-1H-IMIDAZOLE-5-CARBOXAMIDE INHIBITOR OF KRAS-G12C” (TAIHO PHARMACEUTICAL CO., LTD., priority 2020, published 2023).
pIC50: −log10 of the molar value. Where a name gives a salt, the structure may show the parent alone.

How the values were obtained:
G12C K-Ras4B (1-169) = target: T1, G12C K-Ras4B (1-169) (Homo sapiens, UniProt P01116, G12C); experiment: Test of compounds to determine whether they bind to KRASG12C (LC-MS compound binding rate); conditions: final compound concentration of 2 μM, 1 μM protein, 25° C. for 2 hours
T1 construct: G12C K-Ras4B (1-169)
Method: Test Example 1: A Test of Compounds to Determine Whether they Bind to KRASG12C
Test compounds were prepared in the form of a 10 mM DMSO solution.
Wt K-Ras4B (1-169) and G12C K-Ras4B (1-169) proteins were mixed and diluted with a buffer (1×TBS, 0.1 mM TCEP) to prepare individual 1 μM protein solutions. A 10 mM test compound was diluted tenfold with DMSO to make a 1 mM solution, and then diluted fivefold with DMSO to make a 200 μM solution. The 200 μM solution was further diluted fivefold to make a 40 μM solution. When the final compound concentration was […], 1 μL of a 200 μM test compound was added to 19 μL of a 1 μM protein solution. When the final compound concentration was 2 μM, 1 μL of a 40 μM test compound was added to 19 μL of a 1 μM protein solution. The mixtures were stored in an incubator at 25° C. for 2 hours, and 80 μL of a 1×TBS solution containing 0.2% formic acid was added thereto to end the reaction, followed by LC-MS measurement. LC-MS measurement was performed using Xevo G2-S Q-Tof manufactured by Waters, and reverse-phase chromatography was performed with a desalting column. A mass spectrum of positive ions was obtained by electrospray. For a mass spectrum, a spectrum of a polyvalent ion was collectively converted to a molecular weight by using OpenLynx software by the MaxEnt technique, and a compound binding rate was obtained from the ratio of a signal intensity that corresponds to the molecular weight of a protein to a signal intensity that corresponds to the molecular weight of a compound binding to the protein.
By obtaining the compound binding rate for wt K-Ras4B (1-169) and the compound binding rate for G12C K-Ras4B (1-169) at the same time, information of the selectivity for G12C K-Ras4B (1-169) was obtained at the same time.
The test compounds were measured at their final compound concentration of 2 μM. […] Almost none of the compounds of the disclosure bound to wt K-Ras4B (1-169). The “binding rate” (%) for each of wt K-Ras4B (1-169) and G12C K-Ras4B (1-169) refers to the ratio of the signal intensity of bound forms to the sum of the signal intensity of non-bound forms and the signal intensity of bound forms.

KRAS G12C = target: T2, KRAS G12C (Homo sapiens, UniProt P01116, G12C); experiment: Inhibitory activity on the KRAS G12C nucleotide (GDP-GTP) exchange reaction; type: biochemical; conditions: Bodipy FL GDP-bound KRAS G12C 25 nM; preincubation at 25° C. for 4 hours; SOS1 100 nM, GppNHp 1 μM, reaction for 30 minutes
T2 construct: KRAS G12C (amino acid region: 1-169)
Procedure, shortened: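 Bodipy FL-GDP-loaded KRAS G12C (aa 1-169, 25 nM) preincubated with compound 4 h at 25 °C in pH 7.5 Tris buffer, 5% DMSO; exchange started with SOS1 (aa 564-1049, 100 nM) and 1 μM GppNHp for 30 min. Fluorescence change (ex 485/em 520 nm) normalized to DMSO and no-GppNHp controls; IC50 calculated.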

SMILES	binding rate for G12C K-Ras4B (1-169) (G12C K-Ras4B (1-169))	pIC50 (KRAS G12C)
C=CC(=O)N1C[C@@H](NC(=O)c2c(C)nc(CNc3n[nH]c4cc(Cl)c(C(C)(C)C)cc34)n2C)[C@H]1C (relative stereo) [Example 52, N-((2R *, 3R*)-1-acryloyl-2-methylazetidin-3-yl)-2-(((5-(tert-butyl)-6-chloro-1H-indazol-3-yl)amino)methyl)-1,4-dimethyl-1H-imidazole-5-carboxamide]	B (a binding rate of 60% or more and less than 80% is rated “B,”)	7.42
C=CC(=O)N1CC(NC(=O)c2c(C(F)F)nc(CNc3n[nH]c4cc(Cl)c(C(C)(C)C)cc34)n2C2CCN(C(C)C)C2)C1 (stereo not drawn) [Example 93, N-(1-acryloylazetidin-3-yl)-2-(((5-(tert-butyl)-6-chloro-1H-indazol-3-yl)amino)methyl)-4-(difluoromethyl)-1-(1-isopropylpyrrolidin-3-yl)-1H-imidazole-5-carboxamide formate]	A (a binding rate of 80% or more is rated “A,”)	8.22
C=CC(=O)N1CC(NC(=O)c2c(Cl)nc(CNc3n[nH]c4cc(Cl)c(C(C)(C)C)cc34)n2[C@H]2C[C@H](C)CC[C@H]2C(C)C)C1 [Example 111, N-(1-acryloylazetidin-3-yl)-2-(((5-(tert-butyl)-6-chloro-1H-indazol-3-yl)amino)methyl)-4-chloro-1-((1S,2S,5R)-2-isopropyl-5-methylcyclohexyl)-JH-imidazole-5-carboxamide]	–	7.82
C=CC(=O)N1CC(NC(=O)c2c(Cl)nc(CNc3n[nH]c4cc(Cl)c(C(C)(C)C)cc34)n2[C@@H]2CCN(C(C)C)C2)C1 [Example 114, (R)-N-(1-acryloylazetidin-3-yl)-2-(((5-(tert-butyl)-6-chloro-1H-indazol-3-yl)amino)methyl)-4-chloro-1-(1-isopropylpyrrolidin-3-yl)-1H-imidazole-5-carboxamide]	–	8.15
C=CC(=O)N1CC(NC(=O)c2c(Cl)nc(CNc3n[nH]c4cc(Cl)c(C(C)(C)C)cc34)n2[C@H]2CCN(C(C)C)C2)C1 [Example 116, (S)-N-(1-acryloylazetidin-3-yl)-2-(((5-(tert-butyl)-6-chloro-1H-indazol-3-yl)amino)methyl)-4-chloro-1-(1-isopropylpyrrolidin-3-yl)-1H-imidazole-5-carboxamide]	–	8.10
C=CC(=O)N1CC(NC(=O)c2c(Cl)nc(CNc3n[nH]c4cc(Cl)c(C(C)(C)C)cc34)n2C2CCCN(CC(F)F)C2)C1 (stereo not drawn) [Example 117, N-(1-acryloylazetidin-3-yl)-2-(((5-(tert-butyl)-6-chloro-1H-indazol-3-yl)amino)methyl)-4-chloro-1-(1-(2,2-difluoroethyl)piperidin-3-yl)-1H-imidazole-5-carboxamide]	–	8.05
C=CC(=O)N1CC(NC(=O)c2c(Cl)nc(CNc3n[nH]c4cc(Cl)c(C(C)(C)C)cc34)n2C2CCCN(C)C2)C1 (stereo not drawn) [Example 118, N-(1-acryloylazetidin-3-yl)-2-(((5-(tert-butyl)-6-chloro-1H-indazol-3-yl)amino)methyl)-4-chloro-1-(1-methylpiperidin-3-yl)-1H-imidazole-5-carboxamide]	–	8.30
C=CC(=O)N1CC(NC(=O)c2c(Cl)nc(CNc3n[nH]c4cc(Cl)c(C(C)(C)C)cc34)n2[C@@H]2CCN(CCOC)C2)C1 [Example 119, (R)-N-(1-acryloylazetidin-3-yl)-2-(((5-(tert-butyl)-6-chloro-1H-indazol-3-yl)amino)methyl)-4-chloro-1-(1-(2-methoxyethyl)pyrrolidin-3-yl)-1H-imidazole-5-carboxamide]	–	7.96
C=CC(=O)N1CC(NC(=O)c2c(Cl)nc(CNc3n[nH]c4cc(Cl)c(C(C)(C)C)cc34)n2[C@@H]2CCN(C3CC3)C2)C1 [Example 120, (R)-N-(1-acryloylazetidin-3-yl)-2-(((5-(tert-butyl)-6-chloro-1H-indazol-3-yl)amino)methyl)-4-chloro-1-(1-cyclopropylpyrrolidin-3-yl)-1H-imidazole-5-carboxamide]	–	8.22
C=CC(=O)N1CC(NC(=O)c2c(Cl)nc(CNc3n[nH]c4cc(Cl)c(C(C)(C)C)cc34)n2[C@@H]2CCN(C3COC3)C2)C1 [Example 121, (R)-N-(1-acryloylazetidin-3-yl)-2-(((5-(tert-butyl)-6-chloro-1H-indazol-3-yl)amino)methyl)-4-chloro-1-(1-(oxetan-3-yl)pyrrolidin-3-yl)-1H-imidazole-5-carboxamide]	–	8.30
C=CC(=O)N1CC(NC(=O)c2c(Cl)nc(CNc3n[nH]c4cc(Cl)c(C(C)(C)C)cc34)n2[C@@H]2CCN(Cc3ccccc3)C2)C1 [Example 122, (R)-N-(1-acryloylazetidin-3-yl)-1-(1-benzylpyrrolidin-3-yl)-2-(((5-(tert-butyl)-6-chloro-1H-indazol-3-yl)amino)methyl)-4-chloro-1H-imidazole-5-carboxamide]	–	8.22
C=CCN1CC[C@@H](n2c(CNc3n[nH]c4cc(Cl)c(C(C)(C)C)cc34)nc(Cl)c2C(=O)NC2CN(C(=O)C=C)C2)C1 [Example 123, (R)-N-(1-acryloylazetidin-3-yl)-1-(1-allylpyrrolidin-3-yl)-2-(((5-(tert-butyl)-6-chloro-1H-indazol-3-yl)amino)methyl)-4-chloro-1H-imidazole-5-carboxamide]	–	8.05
C=CC(=O)N1CC(NC(=O)c2c(Cl)nc(CNc3n[nH]c4cc(Cl)c(C(C)(C)C)cc34)n2[C@@H]2CCN(c3ccccn3)C2)C1 [Example 124, (R)-N-(1-acryloylazetidin-3-yl)-2-(((5-(tert-butyl)-6-chloro-1H-indazol-3-yl)amino)methyl)-4-chloro-1-(1-(pyridin-2-yl)pyrrolidin-3-yl)-1H-imidazole-5-carboxamide]	–	8.22
C=CC(=O)N1CC(NC(=O)c2c(Cl)nc(CNc3n[nH]c4cc(Cl)c(C(C)(C)C)cc34)n2[C@@H]2CCN(CC(F)F)[C@H]2C)C1 [Example 125, N-(1-acryloylazetidin-3-yl)-2-(((5-(tert-butyl)-6-chloro-1H-indazol-3-yl)amino)methyl)-4-chloro-1-((2S,3R)-1-(2,2-difluoroethyl)-2-methylpyrrolidin-3-yl)-1H-imidazole-5-carboxamide]	–	7.89
C=CC(=O)N1CC(NC(=O)c2c(Cl)nc(CNc3n[nH]c4cc(Cl)c(C(C)(C)C)cc34)n2[C@@H]2C[C@@H](C)N(CC(F)F)C2)C1 [Example 126, N-(1-acryloylazetidin-3-yl)-2-(((5-(tert-butyl)-6-chloro-1H-indazol-3-yl)amino)methyl)-4-chloro-1-((3R,5R)-1-(2,2-difluoroethyl)-5-methylpyrrolidin-3-yl)-1H-imidazole-5-carboxamide]	–	8.40
C=CC(=O)N1CC(NC(=O)c2ccc(CNc3n[nH]c4cc(Cl)c(C(C)(C)C)cc34)o2)C1 [Reference Example 2, N-(1-acryloylazetidin-3-yl)-5-(((5-(tert-butyl)-6-chloro-1H-indazol-3-yl)amino)methyl)furan-2-carboxamide, reference compound]	E (a binding rate of less than 20% is rated “E.”)	< 5.00
C=CC(=O)N1CC(NC(=O)c2c(-c3ccccc3)nc(CNc3n[nH]c4cc(Cl)c(C(C)(C)C)cc34)n2C)C1 [Reference Example 3, N-(1-acryloylazetidin-3-yl)-2-(((5-(tert-butyl)-6-chloro-1H-indazol-3-yl)amino)methyl)-1-methyl-4-phenyl-1H-imidazole-5-carboxamide, reference compound]	E (a binding rate of less than 20% is rated “E.”)	< 5.00
